Literature values as cited in patent EP4813985A1, “PREPARATION OF QUINAZOLINONE DERIVATIVE AS KINASE INHIBITOR, AND USE THEREOF” (Xizang Haisco Pharmaceutical Co., Ltd., priority 2023, dated 2025).

Key:
[1] = reported in the background; cited from earlier work
BCRP = biological target: T1, BCRP (Homo sapiens, UniProt Q9UNQ0); conditions: reported in the background; cited from earlier work
T1 sequence (Q9UNQ0 1-655): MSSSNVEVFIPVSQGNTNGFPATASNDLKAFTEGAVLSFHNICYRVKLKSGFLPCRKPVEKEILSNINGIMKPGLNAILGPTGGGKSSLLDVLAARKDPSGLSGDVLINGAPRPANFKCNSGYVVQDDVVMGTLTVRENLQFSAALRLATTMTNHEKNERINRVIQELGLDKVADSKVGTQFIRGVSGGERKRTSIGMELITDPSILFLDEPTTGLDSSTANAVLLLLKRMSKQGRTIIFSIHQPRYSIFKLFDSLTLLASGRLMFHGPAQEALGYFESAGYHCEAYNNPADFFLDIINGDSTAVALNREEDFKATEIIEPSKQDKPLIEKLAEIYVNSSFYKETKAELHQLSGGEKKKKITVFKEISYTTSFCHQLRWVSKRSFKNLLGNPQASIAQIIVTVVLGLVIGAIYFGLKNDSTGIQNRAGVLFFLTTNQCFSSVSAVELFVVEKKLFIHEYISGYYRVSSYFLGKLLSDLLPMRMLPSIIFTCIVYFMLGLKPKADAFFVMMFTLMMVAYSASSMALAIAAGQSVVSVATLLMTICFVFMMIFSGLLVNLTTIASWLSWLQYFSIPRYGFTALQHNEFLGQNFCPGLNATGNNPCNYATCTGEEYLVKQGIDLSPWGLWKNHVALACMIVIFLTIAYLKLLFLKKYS

MDR1 = MDR1 (Homo sapiens, UniProt P08183); conditions: reported in the background; cited from earlier work
MDR1, sequence (P08183 whole entry, species assumed): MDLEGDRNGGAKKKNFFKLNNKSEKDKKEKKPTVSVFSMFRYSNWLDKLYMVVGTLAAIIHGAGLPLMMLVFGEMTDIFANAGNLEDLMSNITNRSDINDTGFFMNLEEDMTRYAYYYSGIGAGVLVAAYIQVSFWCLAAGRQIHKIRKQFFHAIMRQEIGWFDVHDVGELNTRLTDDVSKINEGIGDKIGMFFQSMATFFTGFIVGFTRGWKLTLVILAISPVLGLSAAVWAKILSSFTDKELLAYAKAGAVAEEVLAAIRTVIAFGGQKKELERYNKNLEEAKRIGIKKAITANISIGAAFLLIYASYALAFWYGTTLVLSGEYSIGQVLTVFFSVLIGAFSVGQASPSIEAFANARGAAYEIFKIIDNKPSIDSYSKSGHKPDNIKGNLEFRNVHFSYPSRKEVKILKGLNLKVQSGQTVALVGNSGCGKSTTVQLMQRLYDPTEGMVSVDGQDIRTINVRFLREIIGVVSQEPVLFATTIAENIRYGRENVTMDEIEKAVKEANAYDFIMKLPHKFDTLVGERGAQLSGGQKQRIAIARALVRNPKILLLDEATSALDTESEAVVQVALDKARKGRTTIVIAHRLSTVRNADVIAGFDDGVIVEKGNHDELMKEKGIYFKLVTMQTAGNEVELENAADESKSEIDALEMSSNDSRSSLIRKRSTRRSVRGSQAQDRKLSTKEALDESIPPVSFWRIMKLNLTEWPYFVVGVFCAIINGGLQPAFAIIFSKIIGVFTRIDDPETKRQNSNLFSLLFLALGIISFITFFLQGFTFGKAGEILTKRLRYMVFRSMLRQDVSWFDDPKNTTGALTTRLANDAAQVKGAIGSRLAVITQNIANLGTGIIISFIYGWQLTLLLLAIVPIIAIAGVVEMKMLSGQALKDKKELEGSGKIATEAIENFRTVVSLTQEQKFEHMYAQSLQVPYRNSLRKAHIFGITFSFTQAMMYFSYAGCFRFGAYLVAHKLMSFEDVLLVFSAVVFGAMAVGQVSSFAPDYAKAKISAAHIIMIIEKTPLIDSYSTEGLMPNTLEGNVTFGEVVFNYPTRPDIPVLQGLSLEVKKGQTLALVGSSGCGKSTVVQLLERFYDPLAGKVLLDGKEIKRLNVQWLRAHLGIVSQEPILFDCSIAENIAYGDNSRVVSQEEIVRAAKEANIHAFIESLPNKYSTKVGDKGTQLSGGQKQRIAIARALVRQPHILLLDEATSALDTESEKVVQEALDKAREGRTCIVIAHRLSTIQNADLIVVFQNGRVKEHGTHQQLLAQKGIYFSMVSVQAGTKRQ

Q: Which total brain-to-plasma ratio [1] does the source give for `CC(C)(C)c1nc(-c2cccc(NS(=O)(=O)c3c(F)cccc3F)c2F)c(-c2ccnc(N)n2)s1` [dabrafenib] here?
A: Its total brain-to-plasma ratio is 0.023.

Q: What about the BCRP efflux ratio (BCRP) of the same molecule?
A: Its BCRP efflux ratio is 21.0.

Q: And the MDR1 efflux ratio (MDR1)?
A: The MDR1 efflux ratio was 11.4.
